Results reported in ChEMBL document CHEMBL3272116, “Synthesis and evaluation of brain catecholamine depletion by N-alkyl derivatives of 6-aminodopamine” (1976).

Columns and labels:
[1] = tested on: Mus musculus; assay: Depletion of norepinephrine in mouse brain at 50 ug administered intracranially at 24 hrs interval on three successive days measured 24 hrs post last dose relative to control; type: functional
[2] = tested on: Mus musculus; assay: Depletion of dopamine in mouse brain at 50 ug administered intracranially at 24 hrs interval on three successive days measured 24 hrs post last dose relative to control; type: functional

SMILES | Activity [1] [%] | Activity [2] [%]
NCCc1cc(O)c(O)cc1N | 34 | 106
CC(C)NCCc1cc(O)c(O)cc1N | 81 | –
Br.CNCCc1cc(O)c(O)cc1N | 66 | –
CN(C)CCc1cc(O)c(O)cc1N | 88 | 94
